Results: PubChem BioAssay AID588787 (The Scripps Research Institute Molecular Screening Center, 2011)
The source made the active and inactive calls.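 The calls were made as follows: active = pPAFAH enzyme ratio at or below 0.5 while fewer than two other serine hydrolases drop that low; inactive = the rest.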

How the values were obtained:
Experiment in all cases: off-target hydrolase inhibition by ABPP-MudPIT – biochemical, LC-MS/MS, mouse brain soluble proteome, selectivity assay for pPAFAH inhibitor project, late-stage follow-up (AID 588787)
Abhd11 = conditions: ABPP-MudPIT FP-biotin spectral counts, at 1 µM, stronger effect = lower value
Abhd4 = Abhd4 (UniProt Q8VD66); conditions: ABPP-MudPIT FP-biotin spectral counts, at 1 µM, stronger effect = lower value
Acot1 = conditions: ABPP-MudPIT FP-biotin spectral counts, at 1 µM, stronger effect = lower value
Acot2 = conditions: ABPP-MudPIT FP-biotin spectral counts, at 1 µM, stronger effect = lower value
Acot7 = conditions: ABPP-MudPIT FP-biotin spectral counts, at 1 µM, stronger effect = lower value
[1] = target: Acyl-protein thioesterase 1 (Mus musculus) (UniProt P97823); conditions: ABPP-MudPIT FP-biotin spectral counts, Lypla1, at 1 µM, stronger effect = lower value
Apeh = conditions: ABPP-MudPIT FP-biotin spectral counts, at 1 µM, stronger effect = lower value
Dpp8 = conditions: ABPP-MudPIT FP-biotin spectral counts, at 1 µM, stronger effect = lower value
Dpp9 = conditions: ABPP-MudPIT FP-biotin spectral counts, at 1 µM, stronger effect = lower value
Es1 = conditions: ABPP-MudPIT FP-biotin spectral counts, at 1 µM, stronger effect = lower value
Esd = conditions: ABPP-MudPIT FP-biotin spectral counts, at 1 µM, stronger effect = lower value
Fasn = conditions: ABPP-MudPIT FP-biotin spectral counts, at 1 µM, stronger effect = lower value
Lipe = conditions: ABPP-MudPIT FP-biotin spectral counts, at 1 µM, stronger effect = lower value
Lypla2 = conditions: ABPP-MudPIT FP-biotin spectral counts, at 1 µM, stronger effect = lower value
Lyplal1 = conditions: ABPP-MudPIT FP-biotin spectral counts, at 1 µM, stronger effect = lower value
Magl = conditions: ABPP-MudPIT FP-biotin spectral counts, at 1 µM, stronger effect = lower value
Pafah1b2 = conditions: ABPP-MudPIT FP-biotin spectral counts, at 1 µM, stronger effect = lower value
Pafah1b3 = conditions: ABPP-MudPIT FP-biotin spectral counts, at 1 µM, stronger effect = lower value
[2] = target: Palmitoyl-protein thioesterase ABHD10, mitochondrial (Mus musculus) (UniProt Q6PE15); conditions: ABPP-MudPIT FP-biotin spectral counts, at 1 µM, stronger effect = lower value
Pla2g15 = conditions: ABPP-MudPIT FP-biotin spectral counts, at 1 µM, stronger effect = lower value
[3] = target: Platelet-activating factor acetylhydrolase (Mus musculus) (UniProt Q60963); conditions: ABPP-MudPIT FP-biotin spectral counts, Pla2g7 (pPAFAH), at 1 µM, stronger effect = lower value
Pme1 = conditions: ABPP-MudPIT FP-biotin spectral counts, at 1 µM, stronger effect = lower value
Prepl = conditions: ABPP-MudPIT FP-biotin spectral counts, at 1 µM, stronger effect = lower value
[4] = target: Prolyl endopeptidase (Mus musculus) (UniProt Q9QUR6); conditions: ABPP-MudPIT FP-biotin spectral counts, Prep, at 1 µM, stronger effect = lower value
Rbbp9 = conditions: ABPP-MudPIT FP-biotin spectral counts, at 1 µM, stronger effect = lower value
Tpp2 = conditions: ABPP-MudPIT FP-biotin spectral counts, at 1 µM, stronger effect = lower value

Chain of Palmitoyl-protein thioesterase ABHD10, mitochondrial (Mus musculus) (Q6PE15 whole entry, looked up): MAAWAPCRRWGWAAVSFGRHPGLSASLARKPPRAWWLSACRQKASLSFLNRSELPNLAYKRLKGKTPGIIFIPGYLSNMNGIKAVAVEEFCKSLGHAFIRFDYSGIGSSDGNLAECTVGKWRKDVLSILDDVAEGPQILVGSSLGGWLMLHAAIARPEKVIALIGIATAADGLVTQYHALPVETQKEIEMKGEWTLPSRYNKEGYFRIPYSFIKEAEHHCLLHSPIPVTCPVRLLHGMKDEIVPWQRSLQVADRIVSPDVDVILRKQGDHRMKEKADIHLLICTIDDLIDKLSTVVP
Chain of Platelet-activating factor acetylhydrolase (Mus musculus) (Q60963 whole entry, looked up): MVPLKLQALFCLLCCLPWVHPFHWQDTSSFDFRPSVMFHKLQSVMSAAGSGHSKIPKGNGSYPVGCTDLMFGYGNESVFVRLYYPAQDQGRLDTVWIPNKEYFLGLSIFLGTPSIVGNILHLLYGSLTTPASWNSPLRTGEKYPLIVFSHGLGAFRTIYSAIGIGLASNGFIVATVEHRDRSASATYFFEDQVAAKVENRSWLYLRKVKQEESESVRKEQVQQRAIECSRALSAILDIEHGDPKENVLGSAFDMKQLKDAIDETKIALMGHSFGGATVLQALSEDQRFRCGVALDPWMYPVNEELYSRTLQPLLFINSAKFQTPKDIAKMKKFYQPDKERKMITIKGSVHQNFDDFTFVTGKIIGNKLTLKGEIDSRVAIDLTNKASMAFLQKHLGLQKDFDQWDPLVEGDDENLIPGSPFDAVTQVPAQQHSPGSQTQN
Chain of Abhd4 (Q8VD66 whole entry, looked up): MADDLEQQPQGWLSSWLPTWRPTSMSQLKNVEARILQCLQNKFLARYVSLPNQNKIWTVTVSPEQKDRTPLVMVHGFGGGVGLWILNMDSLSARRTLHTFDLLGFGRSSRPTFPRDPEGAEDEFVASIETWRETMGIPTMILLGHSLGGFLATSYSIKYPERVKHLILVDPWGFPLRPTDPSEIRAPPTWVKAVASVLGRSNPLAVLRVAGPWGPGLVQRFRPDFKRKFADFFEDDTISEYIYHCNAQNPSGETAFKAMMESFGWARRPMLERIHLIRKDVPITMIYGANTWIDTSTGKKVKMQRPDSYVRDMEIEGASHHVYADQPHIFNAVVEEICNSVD
Chain of Acyl-protein thioesterase 1 (Mus musculus) (P97823 whole entry, looked up): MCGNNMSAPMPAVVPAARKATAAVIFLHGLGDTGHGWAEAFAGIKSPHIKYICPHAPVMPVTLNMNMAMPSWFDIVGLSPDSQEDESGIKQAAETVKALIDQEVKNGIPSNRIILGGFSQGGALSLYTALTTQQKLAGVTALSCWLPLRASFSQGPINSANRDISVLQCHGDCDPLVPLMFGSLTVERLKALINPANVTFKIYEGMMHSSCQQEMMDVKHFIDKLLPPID
Chain of Prolyl endopeptidase (Mus musculus) (Q9QUR6 whole entry, looked up): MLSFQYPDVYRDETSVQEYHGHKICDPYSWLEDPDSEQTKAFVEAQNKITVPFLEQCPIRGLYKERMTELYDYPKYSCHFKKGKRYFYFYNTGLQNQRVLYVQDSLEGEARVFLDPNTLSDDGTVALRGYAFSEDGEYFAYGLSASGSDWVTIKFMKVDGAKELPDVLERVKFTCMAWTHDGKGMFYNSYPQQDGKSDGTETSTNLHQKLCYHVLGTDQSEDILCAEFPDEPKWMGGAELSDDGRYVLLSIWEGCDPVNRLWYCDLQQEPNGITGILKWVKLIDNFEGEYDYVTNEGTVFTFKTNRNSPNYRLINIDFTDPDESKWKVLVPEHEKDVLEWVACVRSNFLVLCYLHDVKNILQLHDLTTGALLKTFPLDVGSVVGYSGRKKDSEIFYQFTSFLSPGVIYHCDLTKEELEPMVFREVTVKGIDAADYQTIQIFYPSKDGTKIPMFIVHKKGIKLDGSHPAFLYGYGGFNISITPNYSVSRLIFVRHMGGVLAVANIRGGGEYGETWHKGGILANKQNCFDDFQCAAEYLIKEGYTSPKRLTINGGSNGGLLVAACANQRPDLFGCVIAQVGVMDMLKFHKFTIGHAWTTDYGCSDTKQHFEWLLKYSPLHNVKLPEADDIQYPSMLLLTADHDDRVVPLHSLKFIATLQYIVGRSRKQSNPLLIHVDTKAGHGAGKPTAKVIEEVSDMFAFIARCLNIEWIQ

Compound: Cc1cc(N2CCN(C(=O)Oc3ccc(-c4ccccc4)cn3)CC2)c2ccccc2n1
- ratio of spectral counts to DMSO (Abhd11): 1.2 (inactive)
- ratio of spectral counts to DMSO (Abhd4): 0.8 (inactive)
- ratio of spectral counts to DMSO (Acot1): 1.1 (inactive)
- ratio of spectral counts to DMSO (Acot2): 1.1 (inactive)
- ratio of spectral counts to DMSO (Acot7): 0.8 (inactive)
- ratio of spectral counts to DMSO [1]: 1.1 (inactive)
- ratio of spectral counts to DMSO (Apeh): 1.1 (inactive)
- ratio of spectral counts to DMSO (Dpp8): 1.1 (inactive)
- ratio of spectral counts to DMSO (Dpp9): 1.3 (inactive)
- ratio of spectral counts to DMSO (Es1): 0
- ratio of spectral counts to DMSO (Esd): 1.1 (inactive)
- ratio of spectral counts to DMSO (Fasn): 1.1 (inactive)
- ratio of spectral counts to DMSO (Lipe): 0.9 (inactive)
- ratio of spectral counts to DMSO (Lypla2): 1.3 (inactive)
- ratio of spectral counts to DMSO (Lyplal1): 1.1 (inactive)
- ratio of spectral counts to DMSO (Magl): 0.8 (inactive)
- ratio of spectral counts to DMSO (Pafah1b2): 1.4 (inactive)
- ratio of spectral counts to DMSO (Pafah1b3): 1.2 (inactive)
- ratio of spectral counts to DMSO [2]: 1.1 (inactive)
- ratio of spectral counts to DMSO (Pla2g15): 1.1 (inactive)
- ratio of spectral counts to DMSO [3]: 0
- ratio of spectral counts to DMSO (Pme1): 1.1 (inactive)
- ratio of spectral counts to DMSO (Prepl): 1.1 (inactive)
- ratio of spectral counts to DMSO [4]: 1.2 (inactive)
- ratio of spectral counts to DMSO (Rbbp9): 1.1 (inactive)
- ratio of spectral counts to DMSO (Tpp2): 0.8 (inactive)
